The source of these data is article PMC7136958, “Targeting the pregnane X receptor using microbial metabolite mimicry” (EMBO Molecular Medicine, 2020).

Data set [1] addresses T1, PXR (Homo sapiens, UniProt O75469).
T1 sequence (O75469 1-434): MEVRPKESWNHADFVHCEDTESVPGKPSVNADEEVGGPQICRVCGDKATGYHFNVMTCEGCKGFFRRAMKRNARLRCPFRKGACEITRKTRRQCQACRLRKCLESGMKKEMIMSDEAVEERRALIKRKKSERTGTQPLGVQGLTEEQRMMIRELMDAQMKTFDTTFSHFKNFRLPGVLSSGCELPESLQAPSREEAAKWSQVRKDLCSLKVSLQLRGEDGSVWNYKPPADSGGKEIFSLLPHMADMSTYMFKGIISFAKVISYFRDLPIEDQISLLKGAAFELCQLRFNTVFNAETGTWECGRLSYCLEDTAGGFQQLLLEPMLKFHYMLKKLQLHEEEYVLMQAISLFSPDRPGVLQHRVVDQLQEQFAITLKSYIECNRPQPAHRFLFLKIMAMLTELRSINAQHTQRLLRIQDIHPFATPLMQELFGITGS
Briefly: PXR reporter (p3A4-luc luciferase) assay in LS180 cells transiently transfected with wild-type PXR. Particulars: for FOLD INDUCTION of PXR reporter luciferase activity: 24 h, over UT. As for the experimental part:
Incubations were performed in four technical replicates. After the treatments, cells were lysed and luciferase activity was measured on Tecan Infinite M200 Pro plate reader (Schoeller Instruments, Prague, Czech Republic). The data are expressed as fold induction ± SD of luciferase activity over the control cells (agonistic mode—in the absence of a model ligand) or as a percentage of maximal activation ± SD (antagonistic mode—in the presence of a model ligand). […] For all the transfection experiments, specifically multiplexed transfections, the control wells were mock‐transfected ([…]). However, to exclude non‐specific binding of PXR (or other factors) upstream of the luciferase gene within non‐PXR‐binding elements, we performed pilot experiments in different cell passages (P11, P14, and P17) of LS174T cells using a mock luciferase plasmid (luciferase not containing an upstream PXR‐binding element of the CYP3A4 promoter).

Data set [2] concerns the target T2, AhR (Homo sapiens, UniProt P35869).
T2 construct: endogenous in cells; host or cells: AZ-AHR (HepG2)
T2 sequence (P35869 11-848): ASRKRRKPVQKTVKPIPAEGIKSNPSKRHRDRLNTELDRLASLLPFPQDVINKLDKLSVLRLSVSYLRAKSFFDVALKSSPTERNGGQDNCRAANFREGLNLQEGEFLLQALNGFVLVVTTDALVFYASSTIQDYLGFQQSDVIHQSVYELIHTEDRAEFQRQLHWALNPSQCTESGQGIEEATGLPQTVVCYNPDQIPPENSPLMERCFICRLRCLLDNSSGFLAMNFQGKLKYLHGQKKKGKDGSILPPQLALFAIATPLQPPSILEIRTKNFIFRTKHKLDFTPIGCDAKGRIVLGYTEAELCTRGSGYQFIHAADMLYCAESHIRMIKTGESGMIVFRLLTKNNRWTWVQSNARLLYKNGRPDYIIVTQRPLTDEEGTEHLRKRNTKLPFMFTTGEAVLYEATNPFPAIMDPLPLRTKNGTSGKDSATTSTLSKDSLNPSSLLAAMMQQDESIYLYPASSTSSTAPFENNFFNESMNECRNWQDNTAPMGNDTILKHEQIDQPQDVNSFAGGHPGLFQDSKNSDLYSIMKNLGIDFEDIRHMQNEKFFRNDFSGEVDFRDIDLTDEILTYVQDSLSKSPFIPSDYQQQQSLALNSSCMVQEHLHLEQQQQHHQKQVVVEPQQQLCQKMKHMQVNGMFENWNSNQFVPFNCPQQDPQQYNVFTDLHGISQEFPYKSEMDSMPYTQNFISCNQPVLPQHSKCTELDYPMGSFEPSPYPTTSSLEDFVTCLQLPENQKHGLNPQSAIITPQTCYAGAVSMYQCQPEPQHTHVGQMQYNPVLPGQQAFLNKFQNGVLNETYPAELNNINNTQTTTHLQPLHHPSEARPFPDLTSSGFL
Put plainly: AhR reporter assay, HepG2 cells stably expressing pCYP1A1 luciferase (AZ-AHR). Type of data set: cell-based. The note with it: for FOLD INDUCTION (AZ-AHR luciferase): AZ-AHR cells, fold vs DMSO. As to the method:
Incubations were performed in four technical replicates.

Bounds are passed on as bounds.

For `CC#CC(O)(c1ccncc1)c1cc2ccccc2n1S(=O)(=O)c1ccccc1` (racemic) [FKK3], the “aver (mean luciferase signal of H1-H4)” value in data set [1] (1 nM) is 5303.8; in data set [1] (10 nM), 3556.8; in data set [1] (100 nM) it was 7075.5; in data set [1] (1 uM) it was 50228.8; in data set [1] (10 uM), 65270.5; in data set [1] (25 uM) it was 57813.0. Also, the “FOLD INDUCTION of PXR reporter luciferase activity” value in data set [1] (1 nM) is given as 2.5 fold; in data set [1] (10 nM), 1.7 fold; in data set [1] (100 nM), 3.3 fold; in data set [1] (1 uM) it was 23.5 fold; in data set [1] (10 uM), 30.5 fold; in data set [1] (25 uM) it was 27.0 fold. Moreover, the “AhR activation (in words)” value in data set [2] is recorded as “variable degrees of dose‐dependent AhR activation profiles”. The “FOLD INDUCTION (AZ-AHR luciferase)” value in data set [2] (1 nM) is listed as 0.8 fold; in data set [2] (10 nM), 0.7 fold; in data set [2] (100 nM), 0.9 fold; in data set [2] (1µM), 1.1 fold; in data set [2] (10 µM) it was 5.3 fold.

For `O=S(=O)(c1ccccc1)n1c(C(O)(Cc2cc3ccccc3[nH]2)c2ccncc2)cc2ccccc21` (racemic) [FKK7], the “aver (mean luciferase signal of H1-H4)” value is 4342.5 in data set [1] (1 nM); 4393.8 in data set [1] (10 nM); 6280.8 in data set [1] (100 nM); 60156.8 in data set [1] (1 uM); 84023.3 in data set [1] (10 uM); 80527.0 in data set [1] (25 uM). The “FOLD INDUCTION of PXR reporter luciferase activity” value is 1.1 fold in data set [1] (1 nM); 1.2 fold in data set [1] (10 nM); 1.7 fold in data set [1] (100 nM); 15.8 fold in data set [1] (1 uM); 22.1 fold in data set [1] (10 uM); 21.2 fold in data set [1] (25 uM). Besides, the “AhR activation (in words)” value in data set [2] is given as “variable degrees of dose‐dependent AhR activation profiles”. Moreover, the “FOLD INDUCTION (AZ-AHR luciferase)” value in data set [2] (1 nM) is recorded as 0.746 fold; in data set [2] (10 nM) it was 0.738 fold; in data set [2] (100 nM) it was 0.7 fold; in data set [2] (1µM), 3.6 fold; in data set [2] (10 µM), 75.5 fold.

With `O=S(=O)(c1ccccc1)n1c(C(O)Cc2cc3ccccc3[nH]2)cc2ccccc21` (racemic) [FKK8], the “aver (mean luciferase signal of H1-H4)” value in data set [1] (1 nM) amounted to 3847.5; in data set [1] (10 nM), 4121.3; in data set [1] (100 nM) it was 8608.8; in data set [1] (1 uM), 58017.5; in data set [1] (10 uM) it was 99864.5; in data set [1] (25 uM), 75044.8. The “FOLD INDUCTION of PXR reporter luciferase activity” value turned out to be 1.0 fold in data set [1] (1 nM); 1.1 fold in data set [1] (10 nM); 2.3 fold in data set [1] (100 nM); 15.3 fold in data set [1] (1 uM); 26.3 fold in data set [1] (10 uM); 19.7 fold in data set [1] (25 uM). The “AhR activation (in words)” value in data set [2] was “variable degrees of dose‐dependent AhR activation profiles”. Also, the “FOLD INDUCTION (AZ-AHR luciferase)” value in data set [2] (1 nM) turned out to be 0.6 fold; in data set [2] (10 nM), 0.7 fold; in data set [2] (100 nM) it was 1.1 fold; in data set [2] (1µM) it was 2.3 fold; in data set [2] (10 µM), 40.8 fold.

With `OC(c1ccncc1)(c1cc2ccccc2[nH]1)c1cc2ccccc2[nH]1` [FKK2], the “aver (mean luciferase signal of H1-H4)” value in data set [1] (1 nM) is listed as 2792.0; in data set [1] (10 nM), 2989.5; in data set [1] (100 nM), 3008.8; in data set [1] (1 uM) it was 7365.5; in data set [1] (10 uM), 41425.5; in data set [1] (25 uM) it was 32321.0. Besides, the “FOLD INDUCTION of PXR reporter luciferase activity” value in data set [1] (1 nM) stood at 1.3 fold; in data set [1] (10 nM) it was 1.4 fold; in data set [1] (100 nM), 1.4 fold; in data set [1] (1 uM), 3.4 fold; in data set [1] (10 uM), 19.4 fold; in data set [1] (25 uM), 15.1 fold. Moreover, the AhR activation in data set [2] (10 μM) was above 100 fold. The “FOLD INDUCTION (AZ-AHR luciferase)” value in data set [2] (1 nM) stood at 0.9 fold; in data set [2] (10 nM), 0.9 fold; in data set [2] (100 nM) it was 2.1 fold; in data set [2] (1µM), 15.0 fold; in data set [2] (10 µM), 467.5 fold.

Turning to `OC(Cc1cc2ccccc2[nH]1)(c1ccncc1)c1cc2ccccc2[nH]1` (stereo not drawn) [FKK10], the “aver (mean luciferase signal of H1-H4)” value in data set [1] (1 nM) was 4648.0; in data set [1] (10 nM), 3990.3; in data set [1] (100 nM), 4278.0; in data set [1] (1 uM), 3689.5; in data set [1] (10 uM), 16756.3; in data set [1] (25 uM), 52110.3. The “FOLD INDUCTION of PXR reporter luciferase activity” value in data set [1] (1 nM) amounted to 1.3 fold; in data set [1] (10 nM), 1.1 fold; in data set [1] (100 nM), 1.2 fold; in data set [1] (1 uM), 1.1 fold; in data set [1] (10 uM), 4.8 fold; in data set [1] (25 uM), 15.0 fold. For the same compound, in data set [2], the “AhR activation (in words)” value is “variable degrees of dose‐dependent AhR activation profiles”. Further, the “FOLD INDUCTION (AZ-AHR luciferase)” value in data set [2] (1 nM) was determined as 0.5 fold; in data set [2] (10 nM), 0.318 fold; in data set [2] (100 nM), 0.8 fold; in data set [2] (1µM), 1.3 fold; in data set [2] (10 µM), 21.9 fold.
